Patent US11850266B2, “Cardiomyocytes and compositions and methods for producing the same” (President and Fellows of Harvard College, priority 2019, dated 2023)

Columns and labels:
Format in all cases: cell-based, human
[1] = tested on: iPSC-derived cardiomyocytes; assay: Mitochondrial DNA to nuclear DNA ratio, MitoTracker and MitoProbe JC-1 assays
Method: The mitochondrial DNA to nuclear DNA ratio was quantified with qPCR. DNA was extracted from cardiomyocytes using the PureLink genomic DNA mini kit (Invitrogen). Primers for DNA to mitochondrial gene NADH dehydrogenase 1 (ND1) and nuclear gene lipoprotein lipase gene (LPL) were used (10).
Live iPSC-derived cardiomyocytes were stained using MitoTracker Green FM (Invitrogen) or the MitoProbe JC-1 assay kit (Invitrogen) according to the manufacturer's instructions. Cells were evaluated by flow cytometry and mean fluorescence intensity (MFI) of all live cells was quantified. For JC-1, the ratio of red to green MFI for vehicle versus Torin1-treated cells was quantified and normalized to control.

[2] = tested on: iPSC-derived cardiomyocytes; assay: qPCR mRNA expression in iPSC-derived cardiomyocytes
Method: To prepare for differentiation, iPSCs were plated at a density between 20,000 to 80,000 cells (depending on the cell line) per well of a 12-well plate at four days prior to onset of differentiation. Cells were differentiated according to the protocol previously described by Lian et al. with some modifications (FIG. 1A) (1). Basal media was changed from StemFlex to RPMI/B27 on day 0 of differentiation. The GSK3 inhibitor, CHIR99021 (6 μM), was added for 48 hours from day 0 to day 2 of differentiation when cells were approximately 70-80% confluent. The Wnt antagonist IWP4 (5 μM) was added from days 2 to 4 of differentiation. Insulin (10 μg/ml) was added to the media starting on day 7 of differentiation, and media was changed every 2-3 days. In general, higher purity (TNNT2+) cardiomyocytes were observed when beating initiated prior to day 10 of differentiation, therefore only batches with onset of beating between days 7-10 of differentiation were included in this study. Beating cardiomyocytes were treated with Torin1 (200 nM, unless otherwise noted) or vehicle (0.02% dimethylsulfoxide (DMSO)) beginning at ˜2 days after onset of beating for 7 days (media changed with fresh Torin1 or DMSO every 2-3 days), unless otherwise noted. After Torin1 treatment, media was switched back to RPMI/B27/insulin and maintained with media change every 2-3 days until endpoint assay. In a few assays, fatty acids were added in the form of chemically defined lipids (Gibco) diluted 1:1000 simultaneous with Torin1 treatment. In some other assays, fetal bovine serum (10% FBS) was added to cells after completion of Torin treatment for 2-4 days.
RNA was extracted from cells using RiboZol (VWR) followed by the E.Z.N.A. Total RNA I kit (Omega) then reverse transcribed to cDNA with the High Capacity cDNA Reverse Transcription kit (Thermo Fisher Scientific) according to the manufacturer's instructions. Quantitative PCR (qPCR) was performed using the iTaq Universal SYBR Green Supermix (Bio-Rad) and the primer pairs listed in Table 1 with a Bio-Rad CFX384 Real-Time thermal cycler. TATA-binding protein (TBP) was used as the housekeeping gene.

[3] = tested on: iPSC-derived cardiomyocytes; assay: Calcium transients (Fluo-4 AM) analysis with Vala Kinetic Image Cytometer; settings: Torin1 treatment, FIG. 14
Method: To perform calcium transients analysis, 50 ul of 10 ug/ml Hoeschst 33258 and 5 μM Fluo-4 AM was added to each well of a 96 well plate and incubated for 10 minutes at 37 degrees. Media was replaced with RPMI without phenol red supplemented with 1:100 Oxyfluor and 10 uM sodium lactate. Isoproterenol (1 μM) was added to the media for isoproterenol experiments. Pacing protocol was 5 seconds delay without pacing followed by 5 seconds pacing at 1 Hz and 5 seconds imaging without pacing. Imaging was performed using the Vala Kinetic Image Cytometer at 30 fps with 33.30 ms exposure at 14.25 intensity. Stimulation pulse was 5 ms with 15V voltage. Data was collected by CyteSeer analysis program.

[4] = tested on: iPSC-derived cardiomyocytes; assay: Imaging quantification of proliferating cardiomyocytes (Ki67, phospho-histone H3); settings: versus control, non-dissociated cells, FIG. 8
Excerpt: Cardiomyocytes were differentiated in 12 well plates then fixed and stained in the original plates to minimize potential for selection of cells that survive dissociation. Cells were stained with Ki67/TNNT2/DAPI or phospho-H3/TNNT2/DAPI as described in Immunostaining methods. Images were acquired with a fluorescent microscope. Monolayer regions containing TNNT2+ cells were randomly selected from 5 fields of view in the plate with a 10× objective. The particle analysis feature of ImageJ was used to quantify the number of cells per field of view that were positive for DAPI, Ki67, or pH3. To control for variability across samples, a signal threshold of <500 was set DAPI and pH3 (488 nm) channels and a signal threshold of <600 was set for Ki67 ([…]). Particle sizes between 10-1000 pixels^2 were included in the analysis. The percentage of Ki67+ cells or pH3+ cells out of the total number of cells marked by DAPI and TNNT2 was quantified. A chi-squared test was used to evaluate for statistical significance.

[5] = Torin1 200 nM 7 days, BJRiPS-CMs
[6] = Torin1 10-200 nM, 7 days, BJRiPS-CMs, FIG. 1E

## CCC(=O)N1CCN(c2ccc(-n3c(=O)ccc4cnc5ccc(-c6cnc7ccccc7c6)cc5c43)cc2C(F)(F)F)CC1 [Torin1]
[1]; [5]
  MFI of MitoTracker by flow cytometry: decreased MFI
  mitochondrial to nuclear DNA ratio: decreased
[1]; Torin1 1 week, FIG. 3E
  mitochondrial membrane polarization (MitoProbe JC-1 red:green ratio): significant increase in mitochondrial membrane polarization
[2]; 200 nM Torin1 about two days after onset of beating, BJRiPS, FIGS. 18B-18D
  mRNA expression of TNNI3, CACNA1c and SERCA2a: robust increase in mRNA expression
[2]; FIG. 3F
  fatty acid transport protein 6 (FATP6) mRNA: increase in mRNA expression
[2]; FIG. 4A
  HCN4 mRNA: non-significant trend of increased HCN4
[2]; FIGS. 13A-13B
  selected mitochondrial genes (qPCR) or proteins (western): Significant changes in selected mitochondrial genes (FIG. 13A) or proteins (FIG. 13B) were not observed
[2]; Torin1 200 nM from day 9, BJRiPS, FIG. 25B
  E2F4 mRNA: increased mRNA expression of the inhibitory E2F member, E2F4
[2]; Torin1 200 nM from day 9, FIG. 25C
  RBL2 (p130) mRNA: increased mRNA expression of RBL2
[2]; Torin1 200 nM from day 9, FIG. 25D
  MDM2 mRNA: decreased mRNA expression of the E2 ubiquitin-protein ligase, MDM2
[2]; Torin1 10, 50, 200 nM, 7 days, BJRiPS-CMs, FIG. 2A
  MYH6, MYH7, TNNT2 mRNA: trended toward increased expression
[2]; Torin1 10, 50, 200 nM, 7 days, FIG. 3F
  PPARGC1a mRNA expression: dose-dependent increase
[2]; [6]
  cyclin C1 and E2F1 proliferative markers (qPCR): significant decrease
  expression of quiescence markers including p16 and p130 (qPCR): non-significant trends toward increased expression
[2]; Torin1 10 or 200 nM, 7 days, FIG. 4A
  KCNJ2, CACNA1c, RYR2, ATP2A2 (SERCA2A), SCN5A mRNA: significant dose-dependent increase
[2]; discussion of Example 1
  mRNA expression of p21: significantly decreased mRNA expression
[2]; dose-dependent, Torin1 10, 50, 200 nM, 7 days, FIG. 2A
  TNNI3 mRNA expression: significantly increased
[2]; immediately after Torin1 treatment, transient increase at ~5 days, FIG. 25A
  E2F1 mRNA: trend toward decreased mRNA expression of the stimulatory E2F member, E2F1
[2]; initiation about 2 days after onset of beating, BJRiPS, FIG. 20A
  TNNI3 expression by time of Torin1 initiation (qPCR): trend toward higher TNNI3 expression
[2]; trend, Torin1 200 nM from day 9, FIG. 25E
  CDKN1a (p21) mRNA: decreased mRNA expression of the cyclin inhibitor CDKN1a (p21)
[2]; trend, Torin1 200 nM from day 9, FIG. 25F
  CDK2 mRNA: increased mRNA expression of the cyclin-dependent kinase, CDK2
[3]
  calcium peak rise time, peak decay time and FWHM time: significant decreases
[4]
  percentage of Ki67+ cardiomyocytes: significantly decreased
  percentage of pH3+ cardiomyocytes: did not change
